Measurements from patent publication US6878736B1, “Histamine H3 receptor ligands” (James Black Foundation Limited, priority 1998, dated 2005).
Where a name gives a salt, the structure may show the parent alone.

Experiments:
Histamine H3 receptor [1] = biological target: T1, Histamine H3 receptor (Cavia porcellus, UniProt Q9JI35); assay: Histamine H3 radioligand binding assay, guinea pig cortex ([3H]-R-α-methylhistamine); conditions: guinea pig cortex membranes, competition with 1 nM [3H]-R-α-methylhistamine; for Ki: read-out: pKi (Guinea pig cortex) (converted)
In short: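 Male Dunkin Hartley guinea pig cortical membranes incubated 165 min at 21±3 °C in 20 mM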

Histamine H3 receptor [2] = biological target: T1, Histamine H3 receptor; assay: Histamine H3 functional assay, guinea pig ileum (ileal longitudinal muscle, myenteric plexus); parameters: species or system tissue; conditions: antagonist affinity from rightward shift of R-(α)-methylhistamine E/[A] curves (Schild), typical variance ±0.15 log units; for Kb: read-out: pKb (Guinea pig ileum) (converted)
In short: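 Longitudinal muscle–myenteric plexus strips from male Dunkin-Hartley guinea pigs (250-300 g), Krebs-Henseleit buffer at 37±1° C, field-stimulated at 0.1 Hz, 0.5 msec, supramaximal voltage; isometric recording. Cumulative R-(α)-methylhistamine E/[A] curves as % inhibition of twitch height; antagonist affinity by Schild analysis of rightward shift.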

T1 sequence (Q9JI35 whole entry): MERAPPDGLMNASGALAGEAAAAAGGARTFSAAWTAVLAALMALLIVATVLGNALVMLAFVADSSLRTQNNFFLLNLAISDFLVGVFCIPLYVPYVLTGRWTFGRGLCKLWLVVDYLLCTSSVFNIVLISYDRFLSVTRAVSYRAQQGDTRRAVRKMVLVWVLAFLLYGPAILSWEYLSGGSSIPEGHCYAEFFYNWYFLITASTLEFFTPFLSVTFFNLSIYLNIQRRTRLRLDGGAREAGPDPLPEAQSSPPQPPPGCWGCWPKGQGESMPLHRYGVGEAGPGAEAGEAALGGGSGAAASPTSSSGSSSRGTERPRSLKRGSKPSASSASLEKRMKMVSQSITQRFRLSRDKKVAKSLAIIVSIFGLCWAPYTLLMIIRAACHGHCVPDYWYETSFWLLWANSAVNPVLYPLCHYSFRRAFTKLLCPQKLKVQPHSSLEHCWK

SMILES	Ki (Histamine H3 receptor [1])	Kb (Histamine H3 receptor [2])	pKi (Guinea pig cortex) (Histamine H3 receptor [1])	pKb (Guinea pig ileum) (Histamine H3 receptor [2])
CN1CC(OCc2ccc(Cl)cc2)CC1CCCNS(=O)(=O)NCc1ccc(Cl)cc1 (stereo not drawn) [Example 133, N-(4-Chlorobenzyl)-N′-(3-(4R-(4-chlorobenzyloxy)-1-methyl-pyrrolidin-2S-yl)-propyl)-sulfamide]	2510 nM	> 3160 nM	–	–
Cc1ccccc1CNC(=N)NCCCCCN1CCCC1 [Example 48, N-(2-Methylbenzyl)-N′-(5-pyrrolidin-1-yl-pentyl)-guanidine bis-hydrochloride]	3.16 nM	25.1 nM	–	–
Cl.Cl.N=C(NCCCCN1CCCC1)NCc1ccc(-c2ccccc2)cc1 [Example 54, N-Biphenyl-4-yl-methyl-N′-(4-pyrrolidin-1-yl-butyl)-guanidine bis-hydrochloride]	–	–	7.3	7.1
CN1CCC[C@H]1CCNS(=O)(=O)NCc1ccc(Cl)cc1 [Example 115, N-(4-Chlorobenyl)-N′-(2-(1-methyl-pyrrolidin-2S-yl)-ethyl)-sulfamide]	501 nM	398 nM	–	–
N=C(NCCCN1CCCC1)NCc1ccc(I)cc1 [Example 6, N-(4-Iodobenzyl)-N′-(3-pyrrolidin-1-yl-propyl)-guanidine bis-hydrochloride]	50.1 nM	398 nM	–	–
CC(C)CN1CCC[C@H]1CCCNS(=O)(=O)NCc1ccc(Cl)cc1 [Example 119]	15.8 nM	2000 nM	–	–
N=C(NCCCCCN1CCCC1)NCCc1ccc(Cl)cc1 [Example 25, N-(2-(4-Chlorophenyl)ethyl)-N′-(5-pyrrolidin-1-yl-pentyl)-guanidine bis-hydrochloride]	7.94 nM	79.4 nM	–	–
Cl.Cl.N=C(NCCCCCN1CCCCC1)NCC12CC3CC(CC(C3)C1)C2 [Example 60, N-Adamantan-1-yl-methyl-N′-(5-piperidin-1-yl-pentyl)-guanidine bis-hydrochloride]	–	–	8.0	8.1
Cl.Cl.N=C(NCCCCCN1CCCCCCC1)NCC12CC3CC(CC(C3)C1)C2 [Example 62, N-Adamantan-1-yl-methyl-N′-(5-azocan-1-yl-pentyl)-guanidine bis-hydrochloride]	–	–	7.5	7.4
CN1CCC[C@H]1CCCN(C)S(=O)(=O)N(C)Cc1ccc(Cl)cc1 [Example 120, N-(4-Chlorobenzyl)-N,N′-dimethyl-N′-(3-(1-methyl-pyrrolidin-2S-yl)-propyl)-sulfamide]	501 nM	501 nM	–	–
CN1CCC[C@H]1CCCN(CCCc1ccc(Cl)cc1)S(=O)(=O)NCc1ccc(Cl)cc1 [Example 131, N-(4-Chlorobenzyl)-N′-(3-(4-chlorophenyl)propyl)-N′-(3-(1-methyl-pyrrolidin-2S-yl)propyl)-sulfamide]	1000 nM	> 3160 nM	–	–
O=S(=O)(NCCCN1CCCC1)c1ccc2ccccc2c1 [Example 82, N-(3-Pyrrolidin-1-yl-propyl)-2-naphthalenesulfonamide]	316 nM	1000 nM	–	–
Cl.Cl.N=C(NCCCCN1CCCC1)NCC1CCCCC1 [Example 40, N-Cyclohexyl-methyl-N′-(4-pyrrolidin-1-yl-butyl)-guanidine bis-hydrochloride]	–	–	8.4	7.4
N=C(NCCCCN1CCCC1)NCCCC12CC3CC(CC(C3)C1)C2 [Example 36, N-(3-Adamantan-1-yl-propyl)-N′-(4-pyrrolidin-1-yl-butyl)-guanidine bis-hydrochloride]	50.1 nM	63.1 nM	–	–
C[C@H](NC(=N)NCCCCN1CCCC1)C1CCCCC1 [Example 45, N-(1(S)-Cyclohexyl-ethyl)-N′(4-pyrrolidin-1-yl-butyl)-guanidine bis-hydrochloride]	3.98 nM	31.6 nM	–	–
CN1CCCC1CCCCS(=O)(=O)NCc1ccc(Cl)cc1 (stereo not drawn) [Example 136, N-(4-Chlorobenzyl)-4-(1-methyl-pyrrolidin-2S-yl)-butanesulfonamide]	316 nM	316 nM	–	–
